13 compounds from PubChem BioAssay AID192 (DTP/NCI, 2004) can be followed below.

Where “and” joins values, the source holds several entries; their conditions need not be identical. Identical values can stand only once. Toxic doses and inconclusive results are not listed.

This experiment deals with BDF1 mice, B16 melanoma ip, median survival T/C. The experiment can be described thus: NCI In Vivo Anticancer Drug Screen. Data for tumor model B16 Melanoma (intraperitoneal) in B6D2F1 (BDF1) mice. The conditions noted are these: endpoint: median survival time, higher = longer survival. The procedure, abridged: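 Each result divides a survival or tumor-size measurement in the compound-treated group by the same measurement in the vehicle group.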

Where [1] appears, read: dose: 0.12 mg/kg/injection, schedule: Q01DX009 (ip), vehicle: saline.
Where [2] appears, read: dose: 6.25 mg/kg/injection, schedule: Q01DX009 (ip), vehicle: saline.
Setting [3] is: dose: 12.5 mg/kg/injection, schedule: Q01DX009 (ip), vehicle: saline.
Where [4] appears, read: dose: 25.0 mg/kg/injection, schedule: Q01DX009 (ip), vehicle: saline.
[5] abbreviates: dose: 50.0 mg/kg/injection, schedule: Q01DX009 (ip), vehicle: saline.
[6] abbreviates: dose: 6.25 mg/kg/injection, schedule: Q01DX009 (ip), vehicle: water.
[7] abbreviates: dose: 12.5 mg/kg/injection, schedule: Q01DX009 (ip), vehicle: water.
[8] abbreviates: dose: 100.0 mg/kg/injection, schedule: Q01DX009 (ip), vehicle: saline.

For the compound `NC(=O)c1[nH]nc(C2OC(CO)C(O)C2O)c1O` (stereo unspecified), the T/C by setting is: (dose: 0.08 mg/kg/injection, schedule: Q01DX009 (ip), vehicle: saline) 100 % of control; under setting [1], 110 % of control; (dose: 0.16 mg/kg/injection, schedule: Q01DX009 (ip), vehicle: saline) 111 % of control; (dose: 0.31 mg/kg/injection, schedule: Q01DX009 (ip), vehicle: saline) 111 % of control; (dose: 0.5 mg/kg/injection, schedule: Q01DX009 (ip), vehicle: saline) 115 % of control; (dose: 0.62 mg/kg/injection, schedule: Q01DX009 (ip), vehicle: saline) 111 % of control. Moreover, the T/C runs as follows: (dose: 0.67 mg/kg/injection, schedule: Q01DX009 (ip), vehicle: saline) 123 % of control; (dose: 1.25 mg/kg/injection, schedule: Q01DX009 (ip), vehicle: saline) 94 % of control; (dose: 2.16 mg/kg/injection, schedule: Q01DX004 (ip), vehicle: saline) 113 % of control; (dose: 3.6 mg/kg/injection, schedule: Q01DX004 (ip), vehicle: saline) 112 % of control; (dose: 6.0 mg/kg/injection, schedule: Q01DX004 (ip), vehicle: saline) 109 % of control; (dose: 10.0 mg/kg/injection, schedule: Q01DX004 (ip), vehicle: saline) 44 % of control.
With `NC1(c2ccccc2)CCCCC1`, the T/C by setting is: (dose: 3.12 mg/kg/injection, schedule: Q01DX009 (ip), vehicle: saline) 86 % of control; under setting [2], 100 % of control; under setting [3], 102 % of control; under setting [4], 100 % of control; under setting [5], 100 % of control.
With `CCc1ncnc2cc(OCC3CO3)c(OC)cc12` (stereo unspecified), the T/C (dose: 6.25 mg/kg/injection, schedule: Q01DX009 (ip), vehicle: saline with Tween-80) was 109 % of control; the T/C (dose: 20.0 mg/kg/injection, schedule: Q04DX003 (ip), vehicle: other) is 114 % of control; the T/C under setting [4] is 154 % of control.
For the compound `Cc1nc(C(=O)O)c(C)c(=O)[nH]1`, the T/C runs as follows: (dose: 1.56 mg/kg/injection, schedule: Q01DX009 (ip), vehicle: water) 100 % of control; (dose: 3.13 mg/kg/injection, schedule: Q01DX009 (ip), vehicle: water) 96 % of control; under setting [6], 105 % of control; under setting [7], 100 % of control.
For the compound `Nc1cc(Cl)c2cccnc2c1O`, the T/C by setting is: (dose: 22.0 mg/kg/injection, schedule: Q01DX009 (ip), vehicle: saline) 115 % of control; (dose: 33.0 mg/kg/injection, schedule: Q01DX009 (ip), vehicle: saline) 120 % of control; (dose: 44.0 mg/kg/injection, schedule: Q04DX003 (ip), vehicle: saline) 106 % of control; (dose: 66.0 mg/kg/injection, schedule: Q04DX003 (ip), vehicle: saline) 106 % of control; (dose: 100.0 mg/kg/injection, schedule: Q04DX003 (ip), vehicle: saline) 86 % of control.
`Cc1ccc(OC(=O)/C=C/C(=O)Oc2ccc(C)cc2)cc1`: the T/C by setting is: (dose: 75.0 mg/kg/injection, schedule: Q04DX003 (ip), vehicle: Klucel (hydroxypropylcellulose) (HPC)) 89 % of control; (dose: 150.0 mg/kg/injection, schedule: Q04DX003 (ip), vehicle: Klucel (hydroxypropylcellulose) (HPC)) 94 % of control; (dose: 300.0 mg/kg/injection, schedule: Q04DX003 (ip), vehicle: Klucel (hydroxypropylcellulose) (HPC)) 100 % of control.
Take `O=Nc1ccc(O)c(=O)cc1`: the T/C reads like this: (dose: 1.0 mg/kg/injection, schedule: Q01DX009 (ip), vehicle: saline with Tween-80) 97 % of control; (dose: 2.0 mg/kg/injection, schedule: Q01DX009 (ip), vehicle: saline with Tween-80) 90 % of control.
Consider `O=S(=O)(OCC(F)(F)F)c1ccccc1`, for which the T/C runs as follows: (dose: 50.0 mg/kg/injection, schedule: Q01DX009 (ip), vehicle: Klucel (hydroxypropylcellulose) (HPC)) 109 % of control; (dose: 100.0 mg/kg/injection, schedule: Q01DX009 (ip), vehicle: Klucel (hydroxypropylcellulose) (HPC)) 100 % of control; (dose: 200.0 mg/kg/injection, schedule: Q01DX009 (ip), vehicle: Klucel (hydroxypropylcellulose) (HPC)) 97 % of control.
Regarding `CC(O)c1cccnc1` (stereo unspecified), the T/C is, setting by setting: (dose: 10.0 mg/kg/injection, schedule: Q01DX009 (ip), vehicle: saline) 122 % of control; (dose: 20.0 mg/kg/injection, schedule: Q01DX009 (ip), vehicle: saline) 116 % of control; (dose: 40.0 mg/kg/injection, schedule: Q01DX009 (ip), vehicle: saline) 122 % of control.
Take `OC(C1CO1)C(O)C1CO1` (stereo unspecified): the T/C under setting [1] was 118 % of control; the T/C (dose: 0.13 mg/kg/injection, schedule: Q03HX024 (ip), vehicle: saline) was 114 % of control; the T/C (dose: 0.25 mg/kg/injection, schedule: Q01DX009 (ip), vehicle: saline) is 104 % of control and 107 % of control and 110 % of control; the T/C (dose: 0.25 mg/kg/injection, schedule: Q03HX008 (ip), vehicle: saline) was 123 % of control; the T/C (dose: 0.25 mg/kg/injection, schedule: Q03HX016 (ip), vehicle: saline) was 120 % of control; the T/C (dose: 0.5 mg/kg/injection, schedule: Q01DX005 (ip), vehicle: saline) is 113 % of control. The T/C is 120 % of control (dose: 0.5 mg/kg/injection, schedule: Q03HX008 (ip), vehicle: saline); 119 % of control (dose: 1.0 mg/kg/injection, schedule: Q01DX005 (ip), vehicle: saline); 152 % of control (dose: 1.0 mg/kg/injection, schedule: Q03HX016 (ip), vehicle: saline); 172 % of control (dose: 1.0 mg/kg/injection, schedule: Q03HX024 (ip), vehicle: saline); 153 % of control (dose: 2.0 mg/kg/injection, schedule: Q01DX005 (ip), vehicle: saline); 160 % of control (dose: 2.0 mg/kg/injection, schedule: Q03HX008 (ip), vehicle: saline). The T/C by setting is: (dose: 2.0 mg/kg/injection, schedule: Q03HX016 (ip), vehicle: saline) 214 % of control; (dose: 4.0 mg/kg/injection, schedule: Q01DX001 (ip), vehicle: saline) 158 % of control; (dose: 4.0 mg/kg/injection, schedule: Q01DX005 (ip), vehicle: saline) 192 % of control; (dose: 4.0 mg/kg/injection, schedule: Q01DX009 (ip), vehicle: saline sonified) 184 % of control; (dose: 4.0 mg/kg/injection, schedule: Q08DX002 (ip), vehicle: saline) 158 % of control; (dose: 8.0 mg/kg/injection, schedule: Q01DX001 (ip), vehicle: saline) 204 % of control. Further, the T/C runs as follows: (dose: 8.0 mg/kg/injection, schedule: Q04DX003 (ip), vehicle: saline) 171 % of control; (dose: 8.0 mg/kg/injection, schedule: Q08DX002 (ip), vehicle: saline) 208 % of control.
Turning to `Cn1c(=O)c2c(ncn2CCO)n(C)c1=O`, the T/C is, setting by setting: under setting [8], 120 % of control; (dose: 200.0 mg/kg/injection, schedule: Q01DX009 (ip), vehicle: saline) 122 % of control.
Consider `CCN(CC)C(C)CN1c2ccccc2Sc2ccccc21` (stereo unspecified), for which the T/C runs as follows: under setting [2], 95 % of control; under setting [3], 105 % of control; under setting [4], 105 % of control; under setting [5], 112 % of control; under setting [8], 112 % of control.
On to `COc1cc2ccncc2cc1O`, for which the T/C is 104 % of control under setting [6]; 95 % of control under setting [7]; 109 % of control (dose: 25.0 mg/kg/injection, schedule: Q01DX009 (ip), vehicle: water); 98 % of control (dose: 50.0 mg/kg/injection, schedule: Q01DX009 (ip), vehicle: water).
